Laboratory results as given in patent publication US20250215012A1, “IKZF2 DEGRADERS AND USES THEREOF” (REGENTS OF THE UNIVERSITY OF MICHIGAN, priority 2022, published 2025).

Columns and labels:
IKZF1 = IKZF1 (Homo sapiens (Human), UniProt Q13422+Q96SW2); experiment: IKZF1 HiBit Assay (HEK293T Flp-in-HiBiT-IKZF1 stable cell line); type: cell-based; settings: HEK293T Flp-in-HiBiT-IKZF1 cells, 6 hrs; for DC50: read-out: IKZF1 HiBit degradation DC50; for Dmax: HEK-293T, read-out: IKZF1 HiBit degradation Dmax
Procedure: The HiBiT protein tagging system was applied to modified Cells: modified HEK293T Flp-in-HiBiT-IKZF1 stable cell line (polyclone) via a CRISPR/Cas9—mediated insertion of the HiBiT peptide tag (Promega™) to the N-terminus of the IKZF2 gene locus (Neon™ transfection system).
Test compound from 10 mM and reference compound (CC-92480 from 50 mM and I-57 from 10 mM) are diluted at 3 folds for 11 doses. 25 nL of diluted compound is transferred to assay plates (Corning3571) using ECHO550, the final DMSO concentration @0.1%. The cells are seeded in 3000/[…]/well to compound plates. The plates are incubated for 6 hrs in TC incubator. The amount of Nano-Glo® HiBiT lytic reagent needed to perform the desired experiments is calculated. The Nano-Glo® HiBiT lytic reagent is brought to room temperature. The LgBiT protein is diluted to 1:100 and the Nano-Glo® HiBiT lytic substrate is brought to 1:50 into an appropriate volume of room temperature Nano-Glo® HiBiT lytic buffer. […] of the detection reagent (or without LgBiT) is dispensed to corresponding well according to the layout. The plate is shaked for 10 mins at room temperature. After briefly centrifuging, the plate is read on Envision. At the indicated timepoints, the Nano-Glo® HiBiT lytic detection system (Promega™) was utilized for detecting bioluminescence of the HiBiT tag in treated cells: abundance of the tag is proportionate to the level of luminescence. Following normalization to DMSO, dose-response curves were plotted (GraphPad Prism) to determine the concentration points at which 50% of HiBiT-Ikaros degradation was achieved by each compound. The extent of degradation (range of luminescence) from the highest to lowest concentration points was calculated to determine the Dm.

IKZF2 = IKZF2 (Homo sapiens (Human), UniProt Q96SW2+Q9UKS7); experiment: IKZF2 HiBit Assay (HEK293T Flp-in-HiBiT cells); type: cell-based; settings: HEK293T Flp-in-HiBiT cells, 6 hrs; for DC50: read-out: IKZF2 HiBit degradation DC50; for Dmax: HEK-293T, read-out: IKZF2 HiBit degradation Dmax
Procedure: The HiBiT protein tagging system was applied to modified HEK293T Flp-in-HiBiT cells (polyclone) via a CRISPR/Cas9—mediated insertion of the HiBiT peptide tag (Promega™) to the N-terminus of the IKZF2 gene locus (Neon™ transfection system). Test and reference compounds are diluted from 1 mM at 3 folds for 11 doses. 25 nL of diluted compound is transferred to assay plates (Corning3570) using ECHO550, the final DMSO concentration @0.1%. The cells are seeded in 3000/[…]/well to compound plates. It is then incubated for 6 hrs in TC incubator. The amount of Nano-Glo® HiBiT lytic reagent needed to perform the desired experiments is calculated. The Nano-Glo® HiBiT lytic reagent is brought to room temperature. The LgBiT protein is diluted to 1:100 and the Nano-Glo® HiBiT lytic substrate is diluted to 1:50 into an appropriate volume of room temperature Nano-Glo® HiBiT lytic buffer. […] of the detection reagent (or without LgBiT) is dispensed to corresponding well according to the layout. The plate is then shaked for 10 mins at room temperature. After briefly centrifuge, the plate is read on Envision. At the indicated timepoints, the Nano-Glo® HiBiT lytic detection system (Promega™) was utilized for detecting bioluminescence of the HiBiT tag in treated cells: abundance of the tag is proportionate to the level of luminescence. Following normalization to DMSO, dose-response curves were plotted (GraphPad Prism) to determine the concentration points at which 50% of HiBiT-Helios degradation was achieved by each compound. The extent of degradation (range of luminescence) from the highest to lowest concentration points was calculated to determine the Dmax.

[1] = target: His tagged CRBN+DDB−DLS7+CXU4 (Homo sapiens (Human), UniProt Q96SW2); experiment: IC50 Measurements for Binding to CRBN/DDBI (HTRF); settings: Cy5-labeled Thalidomide probe, one hour incubation
His tagged CRBN+DDB−DLS7+CXU4, sequence (Q96SW2 whole entry): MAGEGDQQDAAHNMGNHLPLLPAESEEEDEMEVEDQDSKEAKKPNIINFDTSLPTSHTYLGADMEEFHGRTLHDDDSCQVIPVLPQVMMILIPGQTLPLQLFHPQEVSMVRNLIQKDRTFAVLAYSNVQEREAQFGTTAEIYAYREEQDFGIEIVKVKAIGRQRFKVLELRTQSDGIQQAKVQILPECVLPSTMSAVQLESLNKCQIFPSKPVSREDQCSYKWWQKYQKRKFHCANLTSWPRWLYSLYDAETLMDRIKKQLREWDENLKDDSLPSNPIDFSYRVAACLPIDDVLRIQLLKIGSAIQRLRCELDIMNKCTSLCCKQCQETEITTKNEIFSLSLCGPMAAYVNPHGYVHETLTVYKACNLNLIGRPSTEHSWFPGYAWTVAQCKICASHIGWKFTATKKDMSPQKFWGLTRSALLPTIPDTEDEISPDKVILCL
His tagged CRBN+DDB−DLS7+CXU4, sequence (Q16531 whole entry partner): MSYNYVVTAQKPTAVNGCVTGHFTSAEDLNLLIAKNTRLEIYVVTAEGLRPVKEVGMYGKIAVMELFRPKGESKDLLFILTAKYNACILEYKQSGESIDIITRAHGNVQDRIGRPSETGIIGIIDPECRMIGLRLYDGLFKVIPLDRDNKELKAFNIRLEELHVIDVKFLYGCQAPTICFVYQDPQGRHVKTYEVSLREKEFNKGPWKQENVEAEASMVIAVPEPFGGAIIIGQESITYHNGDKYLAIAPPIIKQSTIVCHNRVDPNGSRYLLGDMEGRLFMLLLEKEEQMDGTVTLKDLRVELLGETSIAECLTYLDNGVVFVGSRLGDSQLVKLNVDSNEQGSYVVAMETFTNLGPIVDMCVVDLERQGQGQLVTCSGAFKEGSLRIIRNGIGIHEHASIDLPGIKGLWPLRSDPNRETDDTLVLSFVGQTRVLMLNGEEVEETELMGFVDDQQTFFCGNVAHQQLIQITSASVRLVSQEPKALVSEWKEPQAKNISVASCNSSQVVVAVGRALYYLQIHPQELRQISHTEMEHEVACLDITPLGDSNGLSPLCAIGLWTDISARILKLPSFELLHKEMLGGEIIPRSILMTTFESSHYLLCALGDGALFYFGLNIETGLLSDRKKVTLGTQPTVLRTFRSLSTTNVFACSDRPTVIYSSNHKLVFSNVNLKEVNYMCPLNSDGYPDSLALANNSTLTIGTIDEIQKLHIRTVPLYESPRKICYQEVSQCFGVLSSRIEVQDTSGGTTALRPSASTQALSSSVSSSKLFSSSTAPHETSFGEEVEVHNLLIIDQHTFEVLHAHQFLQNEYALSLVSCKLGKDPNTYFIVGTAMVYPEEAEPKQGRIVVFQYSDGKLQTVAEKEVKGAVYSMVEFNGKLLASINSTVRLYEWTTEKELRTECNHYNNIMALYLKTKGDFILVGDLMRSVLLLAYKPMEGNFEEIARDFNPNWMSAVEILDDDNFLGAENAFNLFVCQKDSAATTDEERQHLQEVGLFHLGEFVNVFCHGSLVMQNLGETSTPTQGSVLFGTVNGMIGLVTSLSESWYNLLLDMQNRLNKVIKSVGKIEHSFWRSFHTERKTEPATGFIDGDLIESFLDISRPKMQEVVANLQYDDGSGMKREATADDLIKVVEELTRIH

IKZF2, sequence (Q9UKS7 whole entry): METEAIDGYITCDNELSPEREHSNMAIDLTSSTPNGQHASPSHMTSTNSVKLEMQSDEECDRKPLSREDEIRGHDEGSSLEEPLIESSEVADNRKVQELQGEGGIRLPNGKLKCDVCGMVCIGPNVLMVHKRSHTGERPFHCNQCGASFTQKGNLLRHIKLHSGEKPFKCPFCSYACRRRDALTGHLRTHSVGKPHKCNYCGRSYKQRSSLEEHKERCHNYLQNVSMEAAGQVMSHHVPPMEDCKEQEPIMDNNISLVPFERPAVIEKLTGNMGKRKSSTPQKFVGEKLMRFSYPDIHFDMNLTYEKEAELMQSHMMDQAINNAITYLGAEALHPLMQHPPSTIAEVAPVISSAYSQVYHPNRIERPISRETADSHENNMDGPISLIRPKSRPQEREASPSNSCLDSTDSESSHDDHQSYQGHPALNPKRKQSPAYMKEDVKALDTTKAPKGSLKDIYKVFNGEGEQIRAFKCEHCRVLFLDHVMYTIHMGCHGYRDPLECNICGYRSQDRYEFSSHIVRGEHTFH
IKZF2, sequence (Q96SW2 whole entry): as the sequence (Q96SW2 whole entry) above
IKZF2, sequence (Q16531 whole entry partner): as the sequence (Q16531 whole entry partner) above
IKZF1, sequence (Q13422 whole entry): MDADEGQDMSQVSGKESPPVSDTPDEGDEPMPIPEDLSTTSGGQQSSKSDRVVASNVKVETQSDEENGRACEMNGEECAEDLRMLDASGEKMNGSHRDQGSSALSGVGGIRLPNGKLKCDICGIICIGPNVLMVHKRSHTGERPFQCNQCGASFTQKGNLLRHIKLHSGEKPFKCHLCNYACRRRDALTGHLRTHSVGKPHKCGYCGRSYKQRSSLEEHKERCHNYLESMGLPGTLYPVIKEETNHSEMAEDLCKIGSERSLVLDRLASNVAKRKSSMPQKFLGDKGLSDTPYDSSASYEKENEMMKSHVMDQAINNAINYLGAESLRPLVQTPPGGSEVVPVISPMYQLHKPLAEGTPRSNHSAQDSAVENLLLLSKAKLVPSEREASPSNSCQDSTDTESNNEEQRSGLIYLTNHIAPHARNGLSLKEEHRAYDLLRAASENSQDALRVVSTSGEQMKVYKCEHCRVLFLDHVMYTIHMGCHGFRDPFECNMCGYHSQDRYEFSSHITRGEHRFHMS
IKZF1, sequence (Q96SW2 whole entry): as the sequence (Q96SW2 whole entry) above
IKZF1, sequence (Q16531 whole entry partner): as the sequence (Q16531 whole entry partner) above

With Cn1cc2cc(CN3CCC4(COc5c4ccc4c5CN([C@H]5CCC(=O)NC5=O)C4=O)C(F)(F)C3)ccc2n1 (stereo partly drawn) [Compound B37, (3S)-3-(3′,3′-difluoro-1′-((2-methyl-2H-indazol-5-yl)methyl)-6-oxo-6,8-dihydro-2H,7H-spiro[furo[2,3-e]isoindole-3,4′-piperidin]-7-yl)piperidine-2,6-dione] the DC50 (IKZF1) was > 1000 nM, the Dmax (IKZF1) was < 20% and the DC50 (IKZF2) was 1 to 10 nM. The Dmax (IKZF2) was 60 to 80% and the IC50 [1] was < 100 nM.
For Cn1cc2ccc(CN3CCC4(COc5c4ccc4c5CN([C@H]5CCC(=O)NC5=O)C4=O)C(F)(F)C3)cc2n1 (stereo partly drawn) [Compound B35, (3S)-3-(3′,3′-difluoro-1′-((2-methyl-2H-indazol-6-yl)methyl)-6-oxo-6,8-dihydro-2H,7H-spiro[furo[2,3-e]isoindole-3,4′-piperidin]-7-yl)piperidine-2,6-dione], the DC50 (IKZF1) was > 1000 nM, the Dmax (IKZF1) was < 20% and the DC50 (IKZF2) was 1 to 10 nM. For the same compound, the Dmax (IKZF2) was 60 to 80% and the IC50 [1] was < 100 nM.
For O=C1CC[C@H](N2Cc3c(ccc4c3OCC43CCN(Cc4cn(-c5ccc(Cl)cc5)nc4C(F)(F)F)CC3)C2=O)C(=O)N1 [Compound B5, (S)-3-(1′-((1-(4-chlorophenyl)-3-(trifluoromethyl)-1H-pyrazol-4-yl)methyl)-6-oxo-6,8-dihydro-2H,7H-spiro[furo[2,3-e]isoindole-3,4′-piperidin]-7-yl)piperidine-2,6-dione], the DC50 (IKZF1) was > 1000 nM, the Dmax (IKZF1) was < 20% and the DC50 (IKZF2) was 1 to 10 nM. The Dmax (IKZF2) was 60 to 80% and the IC50 [1] was 100 to 500 nM.
For [2H]C([2H])([2H])n1cc(-c2cccc(CN3CCC4(COc5c4ccc4c5CN([C@H]5CCC(=O)NC5=O)C4=O)C(F)(F)C3)c2)cn1 (stereo partly drawn) [Compound B49, (3S)-3-(3′,3′-difluoro-1′-(3-(1-(methyl-d3)-1H-pyrazol-4-yl)benzyl)-6-oxo-6,8-dihydro-2H,7H-spiro[furo[2,3-e]isoindole-3,4′-piperidin]-7-yl) piperidine-2,6-dione], the DC50 (IKZF1) was > 1000 nM, the Dmax (IKZF1) was < 20% and the DC50 (IKZF2) was < 1 nM. The Dmax (IKZF2) was > 80% and the IC50 [1] was 100 to 500 nM.
For Cn1cc2c(CN3CCC4(COc5c4ccc4c5CN([C@H]5CCC(=O)NC5=O)C4=O)C(F)(F)C3)cccc2n1 (stereo partly drawn) [Compound B42, (3S)-3-(3′,3′-difluoro-1′-((2-methyl-2H-indazol-4-yl)methyl)-6-oxo-6,8-dihydro-2H,7H-spiro[furo[2,3-e]isoindole-3,4′-piperidin]-7-yl)piperidine-2,6-dione], the DC50 (IKZF1) was > 1000 nM, the Dmax (IKZF1) was < 20% and the DC50 (IKZF2) was 1 to 10 nM. The Dmax (IKZF2) was 60 to 80% and the IC50 [1] was 100 to 500 nM.
In the case of [2H]C([2H])(c1cccc(-c2cnn(C([2H])([2H])[2H])c2)c1)N1CCC2(COc3c2ccc2c3CN([C@H]3CCC(=O)NC3=O)C2=O)C(F)(F)C1 (stereo partly drawn) [Compound B48, (3S)-3-(3′,3′-difluoro-1′-((3-(1-(methyl-d3)-1H-pyrazol-4-yl)phenyl)methyl-d2)-6-oxo-6,8-dihydro-2H,7H-spiro[furo[2,3-e]isoindole-3,4′-piperidin]-7-yl)piperidine-2,6-dione], the DC50 (IKZF1) is reported as > 1000 nM, the Dmax (IKZF1) is reported as < 20% and the DC50 (IKZF2) is reported as < 1 nM. It also gave a Dmax (IKZF2) of 60 to 80% and an IC50 [1] of 100 to 500 nM.
Cn1cc(-c2cccc(CN3CC[C@@]4(COc5c4ccc4c5CN([C@H]5CCC(=O)NC5=O)C4=O)C(F)(F)C3)c2)cn1 [Compound B52, (S)-3-((R)-3′,3′-difluoro-1′-(3-(1-methyl-1H-pyrazol-4-yl)benzyl)-6-oxo-6,8-dihydro-2H,7H-spiro[furo[2,3-e]isoindole-3,4′-piperidin]-7-yl)piperidine-2,6-dione] was tested, and the DC50 (IKZF1) was > 1000 nM, the Dmax (IKZF1) was < 20% and the DC50 (IKZF2) was 1 to 10 nM. The Dmax (IKZF2) was 40 to 60% and the IC50 [1] was 100 to 500 nM.
With CC1CN(Cc2cccc(-c3cnn(C)c3)c2)CCC12COc1c2ccc2c1CN(C1CCC(=O)NC1=O)C2=O (stereo not shown) [Compound B21, 3-(3′-methyl-1′-(3-(1-methyl-1H-pyrazol-4-yl)benzyl)-6-oxo-6,8-dihydro-2H,7H-spiro[furo[2,3-e]isoindole-3,4′-piperidin]-7-yl)piperidine-2,6-dione] the DC50 (IKZF1) was > 1000 nM, the Dmax (IKZF1) was < 20% and the DC50 (IKZF2) was 1 to 10 nM. It also gave a Dmax (IKZF2) of 20 to 40% and an IC50 [1] of 100 to 500 nM.
With [2H]C([2H])(c1cccc(-c2cnn(C)c2)c1)N1CCC2(CC1)COc1c2ccc2c1CN([C@H]1CCC(=O)NC1=O)C2=O [Compound B11, (S)-3-(1′-((3-(1-methyl-1H-pyrazol-4-yl)phenyl)methyl-d2)-6-oxo-6,8-dihydro-2H,7H-spiro[furo[2,3-e]isoindole-3,4′-piperidin]-7-yl)piperidine-2,6-dione] the DC50 (IKZF1) was > 1000 nM, the Dmax (IKZF1) was < 20% and the DC50 (IKZF2) was 1 to 10 nM. For the same compound, the Dmax (IKZF2) was > 80% and the IC50 [1] was < 100 nM.
For “(3S)-3-(3′,3′-difluoro-1′-((1-methyl-1H-indazol-6-yl)methyl)-3-oxo-1,3,7,8-tetrahydro-2H-spiro[cyclopenta[e]isoindole-6,4′-piperidin]-2-yl)piperidine-2,6-dione [Compound B34]”, the “IKZF1 HiBit degradation Dmax” value (IKZF1) was “C (C: <20%)”, the DC50 (IKZF1) was > 1000 nM and the “IKZF2 HiBit degradation Dmax” value (IKZF2) was “B (B: 60-80%)”. It also gave a DC50 (IKZF2) of 1 to 10 nM and an IC50 [1] of 100 to 500 nM.
O=C1CC[C@H](N2Cc3c(ccc4c3OCC43CCN(Cc4cnn(-c5ccc(Cl)cc5)c4C(F)(F)F)CC3)C2=O)C(=O)N1 [Compound B1, (S)-3-(1′-((1-(4-chlorophenyl)-5-(trifluoromethyl)-1H-pyrazol-4-yl)methyl)-6-oxo-6,8-dihydro-2H,7H-spiro[furo[2,3-e]isoindole-3,4′-piperidin]-7-yl) piperidine-2,6-dione] showed a DC50 (IKZF1) of 100 to 1000 nM, a Dmax (IKZF1) of 20 to 40% and a DC50 (IKZF2) of 1 to 10 nM. For the same compound, the Dmax (IKZF2) was 40 to 60% and the IC50 [1] was 500 to 1000 nM.
With Cn1cc(-c2cccc(CN3CCC4(CC3)COc3c4cc(F)c4c3CN([C@H]3CCC(=O)NC3=O)C4=O)c2)cn1 [Compound B16, (S)-3-(5-fluoro-1′-(3-(1-methyl-1H-pyrazol-4-yl)benzyl)-6-oxo-6,8-dihydro-2H,7H-spiro[furo[2,3-e]isoindole-3,4′-piperidin]-7-yl)piperidine-2,6-dione] the DC50 (IKZF1) was > 1000 nM, the Dmax (IKZF1) was < 20% and the DC50 (IKZF2) was 1 to 10 nM. The Dmax (IKZF2) was 40 to 60% and the IC50 [1] was 100 to 500 nM.
For [2H]C([2H])(c1cccc(-c2cnn(C([2H])([2H])[2H])c2)c1)N1CCC2(CC1)COc1c2ccc2c1CN([C@H]1CCC(=O)NC1=O)C2=O [Compound B9, (S)-3-(1′-((3-(1-(methyl-d3)-1H-pyrazol-4-yl)phenyl)methyl-d2)-6-oxo-6,8-dihydro-2H,7H-spiro[furo[2,3-e]isoindole-3,4′-piperidin]-7-yl)piperidine-2,6-dione], the DC50 (IKZF1) was > 1000 nM, the Dmax (IKZF1) was < 20% and the DC50 (IKZF2) was 1 to 10 nM. The Dmax (IKZF2) was 60 to 80% and the IC50 [1] was < 100 nM.
For [2H]C([2H])(c1cccc(-c2cnn(C)c2)c1)N1CCC2(COc3c2ccc2c3CN([C@H]3CCC(=O)NC3=O)C2=O)C(F)(F)C1 (stereo partly shown) [Compound B50], the DC50 (IKZF1) was > 1000 nM, the Dmax (IKZF1) was < 20% and the DC50 (IKZF2) was 1 to 10 nM. The Dmax (IKZF2) was 60 to 80% and the IC50 [1] was 100 to 500 nM.
